Read-outs that look alike come from different tables or passages of the source. One block for each compound: values may come before it.
Key:
RXRs = experiment: RXR activation; type: cell-based
RARs = experiment: RAR activation; type: cell-based
[1] = published data (N = 525); cited from earlier work
[2] = cited from earlier work
[3] = oral, cited from earlier work
[4] = published data (N = 525); cited from earlier work; remark: listed apart in the source
RAR-α = target: T1, RAR-α (Homo sapiens, UniProt P10276); experiment: RAR-α activity; type: cell-based
T1 sequence (P10276 1-462): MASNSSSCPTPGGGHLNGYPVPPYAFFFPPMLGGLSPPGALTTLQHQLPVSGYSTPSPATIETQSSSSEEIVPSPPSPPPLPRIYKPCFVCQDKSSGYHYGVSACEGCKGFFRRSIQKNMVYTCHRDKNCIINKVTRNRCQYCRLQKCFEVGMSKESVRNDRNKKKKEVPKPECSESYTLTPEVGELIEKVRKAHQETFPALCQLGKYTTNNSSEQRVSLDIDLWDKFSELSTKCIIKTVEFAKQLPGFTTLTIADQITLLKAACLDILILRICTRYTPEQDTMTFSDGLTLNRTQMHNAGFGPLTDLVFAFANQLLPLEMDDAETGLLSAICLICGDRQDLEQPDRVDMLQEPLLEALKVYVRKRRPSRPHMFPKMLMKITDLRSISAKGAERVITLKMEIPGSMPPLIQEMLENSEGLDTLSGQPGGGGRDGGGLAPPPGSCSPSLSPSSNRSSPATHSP

[5] = Patient with severe psoriasis taking Ortho-Novum treated with tazarotene; type: in vivo, human; conditions: female, human, in vivo, tazarotene 6 mg per day, mean ±SD
Excerpt: The patient presents symptoms of severe psoriasis. The symptoms include lesions approximately 4 to 10 centimeters across appearing as raised patches of wine red skin many of which are covered in silvery white scales. The lesions are mostly dry and rough, and quite often noticeably warm to the touch. The lesions are present on the elbows, knees, scalp, and groin area. The patient experiences intense burning and itching associated with the lesions.
The patient is currently taking Ortho-Novum® for contraception.
Tazarotene at a dose of 6 mg per day is prescribed.

[6] = Food effect (high-fat meal vs 8-10 hour fast) on pharmacokinetics of tazarotenic acid after oral tazarotene in normal healthy subjects; type: in vivo, human; conditions: 6.3 mg oral tazarotene, fed vs fasted
Excerpt: For the purposes of this application, the bioavailability of a drug may be based on the human pharmokinetic parameters of maximum blood concentration (Cmax) and Area under the blood concentration-time curve (AUC).

Structure (SMILES): CC1(C)CC[S+]([O-])c2ccc(C#Cc3ccc(C(=O)O)cn3)cc21 (centres unmarked) [AGN 190844]
activation of the RXRs (RXRs): does not activate either the RARs or the RXRs | activation of the RARs (RARs): does not activate either the RARs or the RXRs

Structure (SMILES): COc1cc(C)c(/C=C/C(C)=C/C=C/C(C)=C/C(=O)O)c(C)c1C [acitretin]
Alopecia [1]: 319 (60.8) number (%) of patients | Arthralgia [1]: 102 (19.4) number (%) of patients | Atrophy of skin [1]: 64 (12.2) number (%) of patients | Back pain [1]: 41 (7.8) number (%) of patients | Cheilitis [1]: 429 (81.7) number (%) of patients | Dry Skin [1]: 174 (33.1) number (%) of patients | Dry mouth/Oral dryness [1]: 76 (14.5) number (%) of patients | Epistaxis [1]: 61 (11.6) number (%) of patients | Erythematous rash/Erythema [1]: 57 (10.9) number (%) of patients | Hyperesthesia [1]: 66 (12.6) number (%) of patients | Nail Disorder [1]: 170 (32.4) number (%) of patients | Paresthesia [1]: 56 (10.7) number (%) of patients | Paronychia/Nail disorder [1]: 66 (12.6) number (%) of patients | Pruritus [1]: 157 (29.9) number (%) of patients | Rhinitis [1]: 153 (29.1) number (%) of patients | Rigors/Chills [1]: 67 (12.8) number (%) of patients | Skin peeling/Desquamation [1]: 345 (65.7) number (%) of patients | Sticky skin/Skin disorder [1]: 129 (24.6) number (%) of patients | Xerophthalmia/Eye disorder [1]: 112 (21.3) number (%) of patients | effect on contraceptive effect of microdosed progestin “minipill” preparations ([2]; in vivo): interferes with the contraceptive effect | impact of food on bioavailability [3]: bioavailability is increased in the presence of food

Structure (SMILES): C=C(c1ccc(C(=O)O)cc1)c1cc2c(cc1C)C(C)(C)CCC2(C)C [bexarotene]
effect on plasma concentration of tamoxifen ([2]; coadministration with tamoxifen): reduced plasma concentration of tamoxifen | impact of food on bioavailability [3]: bioavailability is increased in the presence of food

Structure (SMILES): CC1=C(/C=C/C(C)=C/C=C/C(C)=C\C(=O)O)C(C)(C)CCC1 [isotretinoin]
effect on blood concentrations of ethinyl estradiol and norethindrone ([2]; coadministered contraceptive tablets): decreases blood concentrations | total dose needed to reach the same peak blood concentration in the fasted state as following a high fat meal ([3]; fasted vs high fat meal): more than doubled | impact of food on bioavailability [3]: bioavailability is increased in the presence of food | Cheilitis [4]: 472 (90.2) number (%) of patients | Conjunctivitis [4]: 201 (38.4) number (%) of patients | Desquamation central face/Desquamation [4]: 187 (35.8) number (%) of patients | Dry Skin [4]: 172 (32.9) number (%) of patients | Dry nose [4]: 136 (26.0) number (%) of patients | Epistaxis [4]: 121 (23.1) number (%) of patients | Fingertip peeling/Desquamation [4]: 63 (12.0) number (%) of patients | Headache [4]: 44 (8.4) number (%) of patients | Irritation of eyes [4]: 85 (16.3) number (%) of patients | Pruritus [4]: 127 (24.3) number (%) of patients | Red Scaly face/Desquamation [4]: 54 (10.3) number (%) of patients | Skin fragility/Skin disorder [4]: 164 (31.4) number (%) of patients

RAR-α activity (RAR-α): minimal RAR-α activity | AUC(0-t) ([5]; read-out: AUC0-24 for tazarotenic acid): 379 ± 78 ng·h/mL | Cmax ([5]; read-out: Cmax for tazarotenic acid): 111 ± 37 ng/mL | 90% confidence intervals (CI) of AUC ratios (test/reference) [6]: completely within the 80-125% boundary | Effect of high-fat meal on bioavailability or pharmacokinetics of tazarotenic acid ([6]; single and multiple dose): does not substantially affect
Structure (SMILES): CC1(C)CCSc2ccc(C#Cc3ccc(C(=O)O)cn3)cc21 [tazarotenic acid]
activation of the RXRs (RXRs): does not activate the RXRs | receptor specificity and selectivity (RARs; RARs, RAR-β and RAR-γ): specificity for the RARs and selectivity for RAR-β and RAR-γ

— US20050026950A1, “Methods of therapeutic treatment using retinoids to achieve consistent bioavailability” (Allergan, Inc., priority 2003, published 2005)
